# Like-named read-outs stand apart in the source and are kept apart here.
# Legend:
# [1] = system: mixed bacterial inoculum: Pseudomonas aeruginosa (ATCC #10145), Escherichia coli (ATCC #11229), Enterobacter aerogenes (ATCC #13048), Alcaligenes faecalis …; experiment: Two-part bacterial challenge of acrylic latex paint samples with a mixed inoculum (performance ratings); format: cell-based; design: key to Performance Ratings Week 1, 1 Day / Performance Ratings Week 1, 2 Days / Performance Ratings Week 1, 8 Days / Performance Ratings Week 2, 1 Day / Performance Ratings Week 2, 2 Days / Performance Ratings Week 2, 8 Days: 0: No bacterial growth; 1: Trace of bacterial growth; 2: Light bacterial growth; 3: Moderate bacterial growth; 4: Heavy bacterial growth
# Experimental: In order to quantify the antibacterial effectiveness of an antimicrobial composition of interest, samples were prepared by adding various amounts of the antimicrobial composition to identical volumes of a paint that contained no preservatives and was not contaminated by bacteria. In this case, the test sample was a white, aqueous-based, acrylic latex paint. The paint included an acrylic resin, and conventional additives such as surfactant, thickener, defoamer, and titanium oxide.
# The samples of the paint were subjected to a two-part challenge procedure and the sample that provided acceptable anti-bacterial protection with the lowest concentration of the antimicrobial composition was identified. Each part of the anti-bacterial challenge consisted of a 7-day test cycle. The parts were performed consecutively over 14 test days.
# Challenge testing was accomplished using a mixed bacterial inoculum as the contamination event. These bacteria are Pseudomonas aeruginosa (ATCC #10145), Escherichia coli (ATCC #11229), Enterobacter aerogenes (ATCC #13048), and Alcaligenes faecalis (ATCC #25094). To prepare the test inoculum, each type of bacteria was harvested separately in nutrient broth. Just before use in the challenge test, equal strengths of each bacterial culture were mixed to obtain an inoculum of approximately 10^8 colony forming units per milliliter (cfu/mL).
# After incubation, both control blanks and samples containing preservatives of interest were inoculated with the mixed inoculum to a final of 1.0 weight %. […]
# Performance ratings of 0, 1, 2, 3 or 4 for each inoculated paint sample were determined by visual inspection of the streak lines, according to the definitions set forth below in Table 25.
# Escherichia coli = experiment: Minimum Inhibitory Concentration (MIC) by spiral plater / spiral gradient endpoint against Escherichia coli; format: cell-based; conditions: MIC of zinc gluconate alone for Escherichia coli (average of Trials 7, 8), used for SI
# Experimental: (§1) Synergistic Index=Qa/QA+Qb/QB [Equation No. 1] • where Qa=the quantity of component A used in a binary mixture that gives the desired effect • QA=the quantity of component A which when used alone gives the desired effect • Qb=the quantity of component B used in a binary mixture that gives the desired effect • QB=the quantity of component B which when used alone gives the desired effect
# (§2) Minimum Inhibitory Concentration (“MIC”) for each of the antimicrobial compositions was determined against a test microbe, which in this case was a spore suspension of the fungus Alternaria alternata, with the aid of an Autoplate 4000 spiral plater that is commercially available from Spiral Biotech, Inc., Norwood, Mass., and its accompanying spiral gradient endpoint software (hereinafter referred to as “the SGE software”). The spiral plater automates the normal serial dilution method for determining MICs. Although the details of the SGE software are held confidentially by Spiral Biotech, Inc., they are believed to consistent with the principles set forth in “Measurement of MICs of antibacterial agents by spiral gradient endpoint compared with conventional dilution method” J. H. Paton, H. A. Holt, and M. J. Bywater—Int. J. Exp. Clin. Chemother, 1990.
# The spiral plater automatically applied 54.3 micro-liters of each antimicrobial composition of interest to the surface of 150 millimeter malt agar plates using an exponential application gradient. The concentration of the antimicrobial concentration was greatest near the center of the Petri plates and decreased toward the edges. […]
# (§3) Inoculated spiral gradient plates were incubated for 48 hours in an incubator at 28° C. […] This growth endpoint value (expressed in mm as measured from center point of the Petri plate) was used to calculate MIC for the mixture, expressed as parts per million.
# Utilizing the experimental procedure described above in Example 1, the MIC against Escherichia coli of several antibacterial compositions containing zinc gluconate, BIT, or both in water were determined.
# Alternaria alternata = experiment: Minimum Inhibitory Concentration (MIC) by spiral plater / spiral gradient endpoint against Alternaria alternata; format: cell-based
# Experimental: as §1, §2
# Spore suspensions for the test microbe were prepared by growing Alternaria alternata on a Difco malt agar slant in an incubator for 1 week at 28° C. Spores were loosened by adding a small amount of buffer solution at pH 7.0 and scraping with a sterile nichrome wire loop. This process was repeated twice. The buffer solution included phosphate buffer and magnesium chloride, and was obtained commercially from Thomas Scientific Company, as Lot #023-0703.
# Loosened spores were removed from the slant by aseptically pouring them into a sterile bottle containing 30 ml of the buffer solution and a volume of approximately 40 ml of 6 mm diameter borosilicate glass beads. The bead bottle was shaken to disperse the spores and adjusted to a final liquid volume of 50 ml. For use as a test inoculum, spore density was adjusted in distilled water blanks to that of a 0.5 McFarland nephelometer standard.
# (§4) The spiral plater automatically applied 54.3 micro-liters of each antimicrobial composition of interest to the surface of 150 millimeter malt agar plates using an exponential application gradient. The concentration of the antimicrobial concentration was greatest near the center of the Petri plates and decreased toward the edges. Antimicrobial composition gradients were allowed to air dry at room temperature for 1 to 4 hours at 23° C. before inoculation with test microbe. Spiral gradient plates were inoculated by streaking with cotton swabs that had been soaked in test microbe spore suspension. Streaks were applied in a radial pattern, using a paper template generated by the SGE software to guide the application. Eight radii were inoculated per Petri plate. Each radius is considered as one replicated observation.
# (§5) Inoculated spiral gradient plates were incubated for 48 hours in an incubator at 28° C. Visible growth of the test microbe developed along the radial streaks and ended where the concentration of the antimicrobial composition was sufficient to prevent growth. This growth endpoint value (expressed in mm as measured from center point of the Petri plate) was used to calculate MIC for the mixture, expressed as parts per million.
# Utilizing the procedure described above in Example 1, Minimum Inhibitory Concentration (“MIC”) for each of the antimicrobial compositions was determined against a test microbe, which in this case was a spore suspension of the […] Alternaria alternata.
# Pseudomonas aeruginosa = experiment: Minimum Inhibitory Concentration (MIC) by spiral plater / spiral gradient endpoint against Pseudomonas aeruginosa; format: cell-based; conditions: 3 1:3, 4,5 1:1, 6 3:1, 7,8 1:0
# Experimental: as §1, §2, §4, §5
# Utilizing the procedure described above in Example 1, Minimum Inhibitory Concentration (“MIC”) for each of the antimicrobial compositions was determined against a test microbe, which in this case was a spore suspension of the bacterium Pseudomonas aeruginosa. Several antimicrobial compositions containing calcium gluconate, BIT, or both in water were investigated, as shown below in Table 7.
# Utilizing the procedure described above in Example 1, Minimum Inhibitory Concentration (“MIC”) for each of the antimicrobial compositions was determined against a test microbe, which in this case was a […] Pseudomonas aeruginosa. Several antimicrobial compositions containing calcium glycerate, BIT, or both in water were investigated, as shown below in Table 13.
# Utilizing the procedure described above in Example 1, Minimum Inhibitory Concentration (“MIC”) of certain antimicrobial compositions was determined against a test microbe, which in this case was a spore suspension of the bacterium Pseudomonas aeruginosa. Several antimicrobial compositions containing zinc gluconate, BIT, or both in water were investigated, as shown below in Table 19.
# Candida albicans = experiment: Minimum Inhibitory Concentration (MIC) by spiral plater / spiral gradient endpoint against Candida albicans; format: cell-based; conditions: for MIC (ppm) for Candida albicans: 3 1:3, 4,5 1:1, 6 3:1, 7,8 1:0; for QA: used for SI
# Experimental: as §1, §2, §4, §5
# Utilizing the procedure described above in Example, Minimum Inhibitory Concentration (“MIC”) for each of the antimicrobial compositions was determined against a test microbe, which in this case was a spore suspension of the yeast Candida albicans., as described above in Example 1. Several antimicrobial compositions containing calcium gluconate, BIT, or both in water were investigated, as shown below in Table 3
# Utilizing the procedure described above in Example 1, Minimum Inhibitory Concentration (“MIC”) for each of the antimicrobial compositions was determined against a test microbe, which in this case was a spore suspension of the yeast Candida albicans. Several antimicrobial compositions containing calcium glycerate, BIT, or both in water were investigated, as shown below in Table 11.
# Utilizing the procedure described above in Example 1, Minimum Inhibitory Concentration (“MIC”) for antimicrobial compositions was determined against a test microbe, which in this case was a spore suspension of the yeast Candida albicans. Several antimicrobial compositions containing calcium glycerate, BIT, or both in water were investigated, as shown below in Table 23.
# Utilizing the procedure described above in Example 1, Minimum Inhibitory Concentration (“MIC”) for each of the antimicrobial compositions was determined against a test microbe, which in this case was a spore suspension of the fungus Candida Albicans.
# Staphylococcus aureus = experiment: Minimum Inhibitory Concentration (MIC) by spiral plater / spiral gradient endpoint against Staphylococcus aureus; format: cell-based
# [2] = ingredient added at 1 mass % based on total mass of paint
# Experimental: Zinc chloride, zinc formate and zinc acetate were added to the acrylic paint formulation.
# Saccharomyces cervisiae = experiment: Minimum Inhibitory Concentration (MIC) by spiral plater / spiral gradient endpoint against Saccharomyces cervisiae; format: cell-based; conditions: aqueous calcium gluconate-BIT compositions; MassCG:MassBIT: Trials 1,2 0:1; 3 1:3; 4,5 1:1; 6 3:1; 7,8 1:0
# Experimental: as §1
# (§6) Minimum Inhibitory Concentration (“MIC”) for each of the antimicrobial compositions was determined against a test microbe, which in this case was a spore suspension of the fungus Alternaria alternata, with the aid of an Autoplate 4000 spiral plater that is commercially available from Spiral Biotech, Inc., Norwood, Mass., and its accompanying spiral gradient endpoint software (hereinafter referred to as “the SGE software”). […]
# as §3
# Utilizing the procedure described above in Example 1, Minimum Inhibitory Concentration (“MIC”) for each of the antimicrobial compositions was determined against a test microbe, which in this case was a spore suspension of the yeast Saccharomyces cervisiae. […]
# Klebsiella pneumoniae = experiment: Minimum Inhibitory Concentration (MIC) by spiral plater / spiral gradient endpoint against Klebsiella pneumoniae; format: cell-based; conditions: quantity of calcium ethylhexanoate used alone that gives the desired effect
# Experimental: as §1, §6, §3
# Utilizing the procedure described above in Example 1, Minimum Inhibitory Concentration (“MIC”) for each of the antimicrobial compositions was determined against a test microbe, which in this case was a spore suspension of the bacteria Klebsiella pneumoniae. […]
# [3] = aqueous calcium glycerate-BIT compositions, MassCGLY:MassBIT: Trials 1,2 0:1
# [4] = zinc glycerate (without BIT), zinc glycerate-BIT series
# [5] = aqueous calcium gluconate-BIT compositions, MassCG:MassBIT: Trials 1,2 0:1
compound,measurement,setting,value
zinc gluconate,"Performance Ratings Week 1, 1 Day","[1]; 5000 ppm in acrylic latex paint, Week 1, 1 Day after inoculation",4
same,"Performance Ratings Week 1, 2 Days","[1]; 5000 ppm in acrylic latex paint, Week 1, 2 Days after inoculation",4
same,"Performance Ratings Week 1, 8 Days","[1]; 5000 ppm in acrylic latex paint, Week 1, 8 Days after inoculation",4
same,"Performance Ratings Week 2, 1 Day","[1]; 5000 ppm in acrylic latex paint, Week 2, 1 Day after inoculation",4
same,"Performance Ratings Week 2, 2 Days","[1]; 5000 ppm in acrylic latex paint, Week 2, 2 Days after inoculation",4
same,"Performance Ratings Week 2, 8 Days","[1]; 5000 ppm in acrylic latex paint, Week 2, 8 Days after inoculation",4
same,bacterial stability test,"[1]; conventional latex paint with 5000 ppm of zinc gluconate added, mixed inoculum, two 7-day cycles",fails
same,QA,Escherichia coli,565 ppm
calcium glycerate,MIC (ppm) for Alternaria alternata,"Alternaria alternata; aqueous calcium glycerate-BIT compositions, MassCGLY:MassBIT: Trials 1,2 0:1, 3 1:3, 4,5 1:1, 6 3:1, 7,8 1:0",> 788 ppm
same,MIC (ppm) for Pseudomonas aeruginosa,Pseudomonas aeruginosa; [3],> 1230 ppm
same,MIC (ppm) for Candida albicans,Candida albicans; [3],> 768 ppm
zinc glycerate,QA,"Alternaria alternata; MIC of zinc glycerate alone for Alternaria alternata, used for SI",>788 ppm
same,MIC for Alternaria alternata,Alternaria alternata; [4],> 768 ppm
same,QA,"Staphylococcus aureus; MIC of zinc glycerate alone for Staphylococcus aureus, used for SI",>1283 ppm
same,MIC for Staphylococcus aureus,Staphylococcus aureus; [4],> 768 ppm
same,QA,Candida albicans; MIC of zinc glycerate alone for Candida albicans,>768 ppm
same,MIC for Candida albicans,"Candida albicans; metal carboxylate without BIT, zinc ethylhexanoate-BIT series (Example 16, Table 31)",> 780 ppm
same,MIC for Candida albicans,Candida albicans; [4],> 768 ppm
CC(=O)[O-].CC(=O)[O-].[Zn+2] [Zinc acetate],Observation (viscosity of conventional acrylic paint),[2],Paint gelled after mixing for
same,Observation (viscosity of conventional acrylic paint),[2]; listed as zinc acetate,caused the paint to gel
O=C[O-].O=C[O-].[Zn+2] [Zinc formate],Observation (viscosity of conventional acrylic paint),[2],Paint gelled immediately
same,Observation (viscosity of conventional acrylic paint),[2]; listed as zinc formate,caused the paint to gel
zinc ethylhexanoate,QA,"Alternaria alternata; MIC of zinc ethylhexanoate alone for Alternaria alternata, used for SI",>780 ppm
same,amount required to prevent growth of Alternaria alternata (MIC),"Alternaria alternata; zinc ethylhexanoate (without BIT), average of two trials",> 780 ppm
same,QA,Candida albicans; MIC of zinc ethylhexanoate alone for Candida albicans,>780 ppm
calcium gluconate,MIC (ppm) for Saccharomyces cervisiae,Saccharomyces cervisiae,> 768 ppm
same,MIC (ppm) for Pseudomonas aeruginosa,Pseudomonas aeruginosa; [5],> 1127 ppm
same,MIC (ppm) for Pseudomonas aeruginosa,"Pseudomonas aeruginosa; aqueous zinc gluconate-BIT compositions, MassZG:MassBIT: Trials 1,2 0:1",> 2300 ppm
same,MIC (ppm) for Candida albicans,Candida albicans; [5],> 768 ppm
[Cl-].[Cl-].[Zn+2] [Zinc chloride],Observation (viscosity of conventional acrylic paint),[2],Paint gelled immediately
same,Observation (viscosity of conventional acrylic paint),[2]; listed as zinc chloride,caused the paint to gel
calcium ethylhexanoate,QA,"Alternaria alternata; quantity of calcium ethylhexanoate used alone that gives the desired effect (average of two trials), Alternaria alternata",7.5 ppm
same,QA,Klebsiella pneumoniae,7.5 ppm

# — patent US20180332847A1, “ANTIMICROBIAL METAL CARBOXYLATE-BENZISOTHIAZOLINONE MIXTURES” (Troy Corporation, priority 2017, published 2018)
